Literature values as cited in patent US20180104231A1, “BENZALKONIUM CHLORIDE FREE OPHTHALMIC COMPOSITION CONTAINING (+)-(S)-4-[4-CHLOROPHENYL) (2-PYRIDYL) METHOXY] PIPERDINO] BUTYRIC ACID OR PHARMACOLOGICALLY ACCEPTABLE ACID ADDITION SALT, THEREOF” (INTERA HEALTHCARE PLC, priority 2016, published 2018).

How the values were obtained:
[1] = with the lapse of time
[2] = system: corneal epithelium and endothelium

Stability to light in an aqueous solution [1]	Molecule	Effect of BAC exposure on cornea ([2]; BAC 0.0001%, minimum of 15 min exposure)	Effect of BAC on corneal epithelial cells ([2]; clinical concentration (0.005%))
unstable to light	O=C(O)CCCN1CCC(O[C@@H](c2ccc(Cl)cc2)c2ccccn2)CC1.O=S(=O)(O)c1ccccc1 [bepotastine besilate]	–	–
–	benzalkonium chloride [BAC]	physiological changes (edema) and ultra-structural changes to corneal epithelium and endothelium	cell wrinkling to lifting of corneal epithelial cells
